Measurements: PMC9271247, “Evaluation of antiplasmodial activity in silico and in vitro of N-acylhydrazone derivatives” (BMC Chemistry, 2022)

Legend:
[1] = tested on: Plasmodium falciparum chloroquine resistant (W2) strain; test: In vitro antiplasmodial activity, blood smear (traditional) test, 48 h; assay type: cell-based; settings: W2, 48 h, read-out: IC50 ± SD P. falciparum
Method: The parasites were synchronized using sorbitol treatment and the parasitemia was microscopically evaluated with Giemsa-stained blood smears.
After 48 h, blood smears were prepared, coded, stained with giemsa and examined at 1000×magnification. The parasitemia of controls (considered as 100% growth) was compared to test cultures, and then the percentage of infected red blood cells was calculated.
The results were expressed as mean of half-maximal inhibitory dose (IC50), with different drug concentrations performed in triplicate and compared with drug-free controls. Curve fitting was performed using OriginPro® 8.0 software (Origin Lab Corporation, Northampton, MA, USA).

in vitro = settings: human, LC50 ± SD WI-26VA4
Method: (§1) Negative controls were composed of cells without treatment. Five serial dilutions (1:10) were made from a stock solution (10 mg mL − 1) using RPMI supplemented with 1% FBS. Cell viability was evaluated after 48 h of incubation by discarding the medium and adding 100 μL of 5% MTT, followed by 3 h of incubation. Then, the supernatant was discarded, and insoluble formazan product was dissolved in DMSO. The optical density (OD) of each well was measured using a microplate spectrophotometer at 550 nm. The OD of untreated control cells was defined as 100% cell viability and all assays were performed in triplicate. The selectivity index (SI) of samples was calculated by following Eq. 1 [29].1 SI=LC50of WI-26VA4 cell line/IC50ofP.falciparumstrain W2

[2] = tested on: human lung fibroblast cell line WI-26VA4 (ATCC CCL-95.1); test: in vitro; settings: 48 h
Method: as §1

| IC50 [1] [µM] | SMILES | CC50 at 48 h (in vitro) [µM] | CC50 [2] [µM] |
| --- | --- | --- | --- |
| 0.19 ± 0.1 | O=C(N/N=C/c1cccc(O)c1)c1ccccc1 [AH1, N'-[(1E)-(3-hydroxyphenyl)methylene]benzohydrazide] | > 100 | > 100 |
| 2.15 ± 0.09 | O=C(N/N=C/c1cccc(O)c1)c1ccc(Cl)cc1 [AH2, 4-chloro-N'-[(1E)-(3-hydroxyphenyl)methylene]benzohydrazide] | > 100 | > 100 |
| > 1 | O=C(N/N=C/c1cccc(O)c1)c1ccc([N+](=O)[O-])cc1 [AH3, N'-[(1E)-(3-hydroxyphenyl)methylene]-4-nitrobenzohydrazide] | 100 ± 0.19 |  |
| 0.09 ± 0.05 | O=C(N/N=C/c1cccc(O)c1)c1ccc(O)cc1 [AH4, 4-hydroxy-N'-[(1E)-(3-hydroxyphenyl)methylene]benzohydrazide] | > 100 | > 100 |
| 0.07 ± 0.07 | O=C(N/N=C/c1cccc(O)c1)c1ccc(NC(=O)c2ccccc2)cc1 [AH5, N-(4-{[(2E)-2-(3-hydroxybenzylidene)hydrazino]carbonyl}phenyl) benzamide] | > 100 | > 100 |
| > 1 | O=C(O)CCC(=O)Nc1ccc(C(=O)N/N=C/c2cccc(O)c2)cc1 [AH6, 4-[(4-{[(2E)-2-(3-hydroxybenzylidene)hydrazino]carbonyl}phenyl)amino]-4-oxobutanoic acid] | 100 ± 0.17 |  |
| > 1 | O=C(N/N=C/c1cccc(O)c1)c1ccncc1 [AH7, N'-[(1E)-(3-hydroxyphenyl)methylene]isonicotinohydrazide] | 100 ± 0.13 |  |
| < 1.01 | CO[C@H]1O[C@@H]2O[C@@]3(C)CC[C@H]4[C@H](C)CC[C@@H]([C@H]1C)[C@@]24OO3 [Artemether, reference compound] | 100 ± 0.18 |  |

| SMILES | IC50 [1] [µM] | CC50 at 48 h (in vitro) [µM] | CC50 [2] [µM] |
| --- | --- | --- | --- |
| CCN(CC)CCCC(C)Nc1ccnc2cc(Cl)ccc12 (stereo not drawn) [Chloroquine, reference compound] | 0.057 ± 0.14 |  |  |
